pEC50: −log10 of the molar value.
What was measured:
[1] = tested on: rat oligodendrocyte progenitor cells; test: Promotive activity of rat oligodendrocyte progenitor cell differentiation-2 (immunostaining of MBP); type: cell-based; conditions: Test 2; vitamin D derivative 2 μM, T3 30 nM; 4 days
In short: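 Rat OPCs prepared by shaking in separation medium about 22 h at 37 °C, 200 rpm, and collecting the supernatant.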

[2] = Evaluation of brain penetration in mice (blood and brain concentration at brain Cmax); type: in vivo, mouse; conditions: 1 mg/kg single oral dose, C57BL/6J mice
In short: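 Male C57BL/6J mice (8 weeks, n=3) dosed orally once at 1 […] mg/kg; plasma and brain collected at 0.25, 0.5, 1, 2, 4 and 8 h. Compound extracted with acetonitrile from brain homogenate and plasma, quantified by LC/MS/MS.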

mouse cuprizone model = test: Myelin regeneration promoting action in mouse cuprizone model (LFB staining of corpus callosum); type: in vivo; conditions: 20 μg/kg oral once a day, 4 weeks after 6 weeks cuprizone diet; untreated = 100%
Excerpt: C57BL/6J mice (8 weeks old, male) were fed a diet containing 0.3% cuprizone (bis(cyclohexanone)oxaldihydrazone) (Research Diets, Inc. #D17042709) for 6 weeks to induce demyelination. Subsequently, the mice were divided into groups of 8 mice based on the body weight, the diet was switched to a cuprizone-free diet (Research Diets, Inc. #D10001), and administration of the test compound or vehicle was started. […] After administration of 4 weeks, the mice were euthanized, perfused with a 4% paraformaldehyde solution, and then brain sampling was performed. The brain sample obtained was embedded in paraffin to prepare a coronal section specimen at Bregma+1. The specimen was stained with Luxor Fast Blue (LFB) to visualize the myelin sheath, and images were acquired using a fluorescence microscope (KEYENCE #BZ-X710). The corpus callosum area and the LFB staining positive area in the corpus callosum of the obtained pathological specimen image were measured using an image analysis application (KEYENCE #BZ-H3C/BZ-H3XD), and the ratio (LFB staining positive area in the corpus callosum/corpus callosum area) was calculated. The intact group is a non-pathogenic group, and the […] control group were sampled after feeding the diet containing 0.3% cuprizone for 6 weeks.
In the table, the ratio of LFB staining positive area in the corpus callosum/corpus callosum area of the untreated group, fed with the cuprizone-free diet for 6 weeks, was regarded as 100%. As a result, the control group, fed with the cuprizone-containing diet for 6 weeks, decreased the ratio to 23.6%, and was confirmed to progress demyelination. The group, in which the cuprizone-containing diet was fed for 6 weeks and switched to the cuprizone-free diet, and the vehicle was administered, improved the ratio of area of LFB staining positive/area of corpus callosum to 50.1%. […] In addition, GSK239512 described in WO2013/107336 pamphlet was evaluated in the test to show the ratio of LFB staining positive area/corpus callosum area of 45.8%, in which no demyelination regeneration promoting action was shown as compared with the vehicle-administered group.

human VDR = molecular target: T1, human VDR (Homo sapiens, UniProt P11473); test: Evaluation of VDR transcription activity in human osteoblasts (HOS cells), luciferase reporter; conditions: Activity (EC50, VDR transcription activity), HOS cells transfected with human VDR, human RXRα and DR3 luciferase reporter; 21 hours
T1 sequence (P11473 1-427): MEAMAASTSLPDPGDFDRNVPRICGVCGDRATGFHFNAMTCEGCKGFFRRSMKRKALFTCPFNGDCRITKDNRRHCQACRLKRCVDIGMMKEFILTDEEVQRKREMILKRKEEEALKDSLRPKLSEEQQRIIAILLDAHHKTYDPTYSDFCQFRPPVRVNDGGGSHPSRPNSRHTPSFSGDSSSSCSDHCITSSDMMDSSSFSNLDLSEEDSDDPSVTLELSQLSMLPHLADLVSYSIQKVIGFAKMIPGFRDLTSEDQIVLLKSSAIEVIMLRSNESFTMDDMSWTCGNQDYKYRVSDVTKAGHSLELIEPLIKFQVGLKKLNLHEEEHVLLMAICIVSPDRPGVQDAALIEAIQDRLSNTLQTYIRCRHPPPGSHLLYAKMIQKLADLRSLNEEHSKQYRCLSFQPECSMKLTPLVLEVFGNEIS
T1 sequence (P19793 1-462 partner): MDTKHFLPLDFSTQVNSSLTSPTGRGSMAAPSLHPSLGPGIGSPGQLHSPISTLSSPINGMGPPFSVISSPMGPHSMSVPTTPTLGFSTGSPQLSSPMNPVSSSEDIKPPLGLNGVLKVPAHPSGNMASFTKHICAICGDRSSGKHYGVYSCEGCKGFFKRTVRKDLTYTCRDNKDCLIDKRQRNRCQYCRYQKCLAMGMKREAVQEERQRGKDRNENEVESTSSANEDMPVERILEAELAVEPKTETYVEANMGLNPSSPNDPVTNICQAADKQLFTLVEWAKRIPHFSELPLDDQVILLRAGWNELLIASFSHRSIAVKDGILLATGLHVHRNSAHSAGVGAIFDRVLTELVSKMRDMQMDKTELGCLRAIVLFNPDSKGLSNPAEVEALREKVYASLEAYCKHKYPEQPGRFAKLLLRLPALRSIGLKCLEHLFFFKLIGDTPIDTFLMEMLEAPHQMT

Question: Which “Mean (number of MBP-positive cells/number of Hoechst33342-positive cells)” value [1] does the source give for `C[C@H](CCN1CCOCC1)[C@H]1CC[C@H]2/C(=C/C=C3C[C@@H](O)C[C@H](O)C3)CCC[C@]12C` [Compound D023, (1R,3R)-5-(2-((1R,3aS,7aR,E)-7a-methyl-1-((R)-4-morpholinobutan-2-yl)octahydro-4H-inden-4-ylidene)ethylidene)cyclohexane-1,3-diol] here?
Answer: The value was 0.36.

Question: And the “Concentration in blood (mean ± SD) at brain Cmax” value ([2]; n=3)?
Answer: Its value is 580 ± 107 nM.

Question: What about the “Concentration in brain (mean ± SD) at brain Cmax” value ([2]; n=3) of the same compound?
Answer: Its value is 595 ± 23 pmol/g.

Question: What about the Kp ([2]; male, C57BL/6J, mouse, brain/plasma, po, 1 mg/kg, read-out: Concentration in brain/in blood ratio at brain Cmax) of the same compound?
Answer: The Kp was 1.03.

Question: And the “Ratio (%): area of LFB staining positive/area of corpus callosum, mean” value (mouse cuprizone model)?
Answer: Its value is 87.0%.

Question: What about the pEC50 (human VDR) of the same compound?
Answer: Its pEC50 is 7.00 to 8.00.
